# System: HCI-024 (organoid from a breast cancer xenograft)
# Test: CTG-3D luminescence at 96 h relative to day-0 seeding control (ratio to day 0); higher = more growth / less cytotoxicity; PDxO 3D drug screen, 96 h, CTG-3D normalised to day-0 seeding control.
# Conditions: 10 µM; days in culture: 122
row,SMILES,CTG-3D luminescence at 96 h
1,CN(Cc1cnc2nc(N)nc(N)c2n1)c1ccc(C(=O)N[C@@H](CCC(=O)O)C(=O)O)cc1 [methotrexate],2.46
2,C=CCn1c(=O)c2cnc(Nc3ccc(N4CCN(C)CC4)cc3)nc2n1-c1cccc(C(C)(C)O)n1 [adavosertib],0.414
3,CC(C)(C(=O)NCC(F)(F)C(F)(F)F)C(=O)N[C@@H]1C(=O)Nc2ccccc2-c2ccccc21,2.55
4,C[C@@H]1COCCN1c1cc(C2([S@](C)(=N)=O)CC2)nc(-c2cc[nH]c3nccc2-3)n1 [ceralasertib],0.742
5,CCN1CCN(Cc2ccc(Nc3ncc(F)c(-c4cc(F)c5nc(C)n(C(C)C)c5c4)n3)nc2)CC1 [abemaciclib],2.1

# Same assay, conditions: 10 µM; days in culture: 163
row,SMILES,CTG-3D luminescence at 96 h
1,COc1cccc2c1C(=O)c1c(O)c3c(c(O)c1C2=O)C[C@@](O)(C(=O)CO)C[C@@H]3O[C@H]1C[C@H](N)[C@H](O)[C@H](C)O1 [doxorubicin],0.176
2,O=C(O)C1(C(=O)O)CCC1.[NH2-].[NH2-].[Pt+2] [carboplatin],2.03
3,NC(=O)Nc1cc(-c2cccc(F)c2)sc1C(=O)N[C@H]1CCCNC1 [AZD7762],0.267
4,Nc1ccn([C@@H]2O[C@H](CO)[C@@H](O)C2(F)F)c(=O)n1 [gemcitabine],0.775
5,CC1(C)CCC(c2ccc(Cl)cc2)=C(CN2CCN(c3ccc(C(=O)NS(=O)(=O)c4ccc(N[C@H](CCN5CCOCC5)CSc5ccccc5)c(S(=O)(=O)C(F)(F)F)c4)cc3)CC2)C1 [navitoclax],1.74
6,CN(Cc1cnc2nc(N)nc(N)c2n1)c1ccc(C(=O)N[C@@H](CCC(=O)O)C(=O)O)cc1 [methotrexate],2.03
7,C=CCn1c(=O)c2cnc(Nc3ccc(N4CCN(C)CC4)cc3)nc2n1-c1cccc(C(C)(C)O)n1 [adavosertib],0.466
8,CC(C)(C(=O)NCC(F)(F)C(F)(F)F)C(=O)N[C@@H]1C(=O)Nc2ccccc2-c2ccccc21,2.52
9,C[C@@H]1COCCN1c1cc(C2([S@](C)(=N)=O)CC2)nc(-c2cc[nH]c3nccc2-3)n1 [ceralasertib],0.897
10,CCN1CCN(Cc2ccc(Nc3ncc(F)c(-c4cc(F)c5nc(C)n(C(C)C)c5c4)n3)nc2)CC1 [abemaciclib],1.38

# Same assay, conditions: 100 µM; days in culture: 105
row,SMILES,CTG-3D luminescence at 96 h
1,COc1cccc2c1C(=O)c1c(O)c3c(c(O)c1C2=O)C[C@@](O)(C(=O)CO)C[C@@H]3O[C@H]1C[C@H](N)[C@H](O)[C@H](C)O1 [doxorubicin],0.154
2,O=C(O)C1(C(=O)O)CCC1.[NH2-].[NH2-].[Pt+2] [carboplatin],0.14
3,NC(=O)Nc1cc(-c2cccc(F)c2)sc1C(=O)N[C@H]1CCCNC1 [AZD7762],0.00249
4,Nc1ccn([C@@H]2O[C@H](CO)[C@@H](O)C2(F)F)c(=O)n1 [gemcitabine],0.516
5,CC1(C)CCC(c2ccc(Cl)cc2)=C(CN2CCN(c3ccc(C(=O)NS(=O)(=O)c4ccc(N[C@H](CCN5CCOCC5)CSc5ccccc5)c(S(=O)(=O)C(F)(F)F)c4)cc3)CC2)C1 [navitoclax],0.182
6,CN(Cc1cnc2nc(N)nc(N)c2n1)c1ccc(C(=O)N[C@@H](CCC(=O)O)C(=O)O)cc1 [methotrexate],1.44
7,C=CCn1c(=O)c2cnc(Nc3ccc(N4CCN(C)CC4)cc3)nc2n1-c1cccc(C(C)(C)O)n1 [adavosertib],0.179
8,CC(C)(C(=O)NCC(F)(F)C(F)(F)F)C(=O)N[C@@H]1C(=O)Nc2ccccc2-c2ccccc21,1.22
9,C[C@@H]1COCCN1c1cc(C2([S@](C)(=N)=O)CC2)nc(-c2cc[nH]c3nccc2-3)n1 [ceralasertib],0.521
10,CCN1CCN(Cc2ccc(Nc3ncc(F)c(-c4cc(F)c5nc(C)n(C(C)C)c5c4)n3)nc2)CC1 [abemaciclib],0.0179

# Same assay, conditions: 100 µM; days in culture: 122
row,SMILES,CTG-3D luminescence at 96 h
1,COc1cccc2c1C(=O)c1c(O)c3c(c(O)c1C2=O)C[C@@](O)(C(=O)CO)C[C@@H]3O[C@H]1C[C@H](N)[C@H](O)[C@H](C)O1 [doxorubicin],0.156
2,O=C(O)C1(C(=O)O)CCC1.[NH2-].[NH2-].[Pt+2] [carboplatin],0.189
3,NC(=O)Nc1cc(-c2cccc(F)c2)sc1C(=O)N[C@H]1CCCNC1 [AZD7762],0.00352
4,Nc1ccn([C@@H]2O[C@H](CO)[C@@H](O)C2(F)F)c(=O)n1 [gemcitabine],0.459
5,CC1(C)CCC(c2ccc(Cl)cc2)=C(CN2CCN(c3ccc(C(=O)NS(=O)(=O)c4ccc(N[C@H](CCN5CCOCC5)CSc5ccccc5)c(S(=O)(=O)C(F)(F)F)c4)cc3)CC2)C1 [navitoclax],0.266
6,CN(Cc1cnc2nc(N)nc(N)c2n1)c1ccc(C(=O)N[C@@H](CCC(=O)O)C(=O)O)cc1 [methotrexate],1.82
7,C=CCn1c(=O)c2cnc(Nc3ccc(N4CCN(C)CC4)cc3)nc2n1-c1cccc(C(C)(C)O)n1 [adavosertib],0.145
8,CC(C)(C(=O)NCC(F)(F)C(F)(F)F)C(=O)N[C@@H]1C(=O)Nc2ccccc2-c2ccccc21,1.21
9,C[C@@H]1COCCN1c1cc(C2([S@](C)(=N)=O)CC2)nc(-c2cc[nH]c3nccc2-3)n1 [ceralasertib],0.54
10,CCN1CCN(Cc2ccc(Nc3ncc(F)c(-c4cc(F)c5nc(C)n(C(C)C)c5c4)n3)nc2)CC1 [abemaciclib],0.0233

# Same assay, conditions: 100 µM; days in culture: 163
row,SMILES,CTG-3D luminescence at 96 h
1,COc1cccc2c1C(=O)c1c(O)c3c(c(O)c1C2=O)C[C@@](O)(C(=O)CO)C[C@@H]3O[C@H]1C[C@H](N)[C@H](O)[C@H](C)O1 [doxorubicin],0.187
2,O=C(O)C1(C(=O)O)CCC1.[NH2-].[NH2-].[Pt+2] [carboplatin],0.608
3,NC(=O)Nc1cc(-c2cccc(F)c2)sc1C(=O)N[C@H]1CCCNC1 [AZD7762],0.00535
4,Nc1ccn([C@@H]2O[C@H](CO)[C@@H](O)C2(F)F)c(=O)n1 [gemcitabine],0.456
5,CC1(C)CCC(c2ccc(Cl)cc2)=C(CN2CCN(c3ccc(C(=O)NS(=O)(=O)c4ccc(N[C@H](CCN5CCOCC5)CSc5ccccc5)c(S(=O)(=O)C(F)(F)F)c4)cc3)CC2)C1 [navitoclax],0.357
6,CN(Cc1cnc2nc(N)nc(N)c2n1)c1ccc(C(=O)N[C@@H](CCC(=O)O)C(=O)O)cc1 [methotrexate],1.74
7,C=CCn1c(=O)c2cnc(Nc3ccc(N4CCN(C)CC4)cc3)nc2n1-c1cccc(C(C)(C)O)n1 [adavosertib],0.225
8,CC(C)(C(=O)NCC(F)(F)C(F)(F)F)C(=O)N[C@@H]1C(=O)Nc2ccccc2-c2ccccc21,1.71
9,C[C@@H]1COCCN1c1cc(C2([S@](C)(=N)=O)CC2)nc(-c2cc[nH]c3nccc2-3)n1 [ceralasertib],0.977
10,CCN1CCN(Cc2ccc(Nc3ncc(F)c(-c4cc(F)c5nc(C)n(C(C)C)c5c4)n3)nc2)CC1 [abemaciclib],0.0196

# Same assay, conditions: 625 fM; days in culture: 105
row,SMILES,CTG-3D luminescence at 96 h
1,COc1cccc2c1C(=O)c1c(O)c3c(c(O)c1C2=O)C[C@@](O)(C(=O)CO)C[C@@H]3O[C@H]1C[C@H](N)[C@H](O)[C@H](C)O1 [doxorubicin],2.18
2,O=C(O)C1(C(=O)O)CCC1.[NH2-].[NH2-].[Pt+2] [carboplatin],1.71
3,NC(=O)Nc1cc(-c2cccc(F)c2)sc1C(=O)N[C@H]1CCCNC1 [AZD7762],1.9
4,Nc1ccn([C@@H]2O[C@H](CO)[C@@H](O)C2(F)F)c(=O)n1 [gemcitabine],1.82
5,CC1(C)CCC(c2ccc(Cl)cc2)=C(CN2CCN(c3ccc(C(=O)NS(=O)(=O)c4ccc(N[C@H](CCN5CCOCC5)CSc5ccccc5)c(S(=O)(=O)C(F)(F)F)c4)cc3)CC2)C1 [navitoclax],1.59
6,CN(Cc1cnc2nc(N)nc(N)c2n1)c1ccc(C(=O)N[C@@H](CCC(=O)O)C(=O)O)cc1 [methotrexate],1.83
7,C=CCn1c(=O)c2cnc(Nc3ccc(N4CCN(C)CC4)cc3)nc2n1-c1cccc(C(C)(C)O)n1 [adavosertib],2.06
8,CC(C)(C(=O)NCC(F)(F)C(F)(F)F)C(=O)N[C@@H]1C(=O)Nc2ccccc2-c2ccccc21,1.91
9,C[C@@H]1COCCN1c1cc(C2([S@](C)(=N)=O)CC2)nc(-c2cc[nH]c3nccc2-3)n1 [ceralasertib],1.93
10,CCN1CCN(Cc2ccc(Nc3ncc(F)c(-c4cc(F)c5nc(C)n(C(C)C)c5c4)n3)nc2)CC1 [abemaciclib],1.87

# Same assay, conditions: 625 fM; days in culture: 122
row,SMILES,CTG-3D luminescence at 96 h
1,COc1cccc2c1C(=O)c1c(O)c3c(c(O)c1C2=O)C[C@@](O)(C(=O)CO)C[C@@H]3O[C@H]1C[C@H](N)[C@H](O)[C@H](C)O1 [doxorubicin],2.88
2,O=C(O)C1(C(=O)O)CCC1.[NH2-].[NH2-].[Pt+2] [carboplatin],2.78
3,NC(=O)Nc1cc(-c2cccc(F)c2)sc1C(=O)N[C@H]1CCCNC1 [AZD7762],2.89
4,Nc1ccn([C@@H]2O[C@H](CO)[C@@H](O)C2(F)F)c(=O)n1 [gemcitabine],2.9
5,CC1(C)CCC(c2ccc(Cl)cc2)=C(CN2CCN(c3ccc(C(=O)NS(=O)(=O)c4ccc(N[C@H](CCN5CCOCC5)CSc5ccccc5)c(S(=O)(=O)C(F)(F)F)c4)cc3)CC2)C1 [navitoclax],2.7
6,CN(Cc1cnc2nc(N)nc(N)c2n1)c1ccc(C(=O)N[C@@H](CCC(=O)O)C(=O)O)cc1 [methotrexate],2.88
7,C=CCn1c(=O)c2cnc(Nc3ccc(N4CCN(C)CC4)cc3)nc2n1-c1cccc(C(C)(C)O)n1 [adavosertib],2.52
8,CC(C)(C(=O)NCC(F)(F)C(F)(F)F)C(=O)N[C@@H]1C(=O)Nc2ccccc2-c2ccccc21,3.41
9,C[C@@H]1COCCN1c1cc(C2([S@](C)(=N)=O)CC2)nc(-c2cc[nH]c3nccc2-3)n1 [ceralasertib],2.57
10,CCN1CCN(Cc2ccc(Nc3ncc(F)c(-c4cc(F)c5nc(C)n(C(C)C)c5c4)n3)nc2)CC1 [abemaciclib],3.21

# Same assay, conditions: 625 fM; days in culture: 163
row,SMILES,CTG-3D luminescence at 96 h
1,COc1cccc2c1C(=O)c1c(O)c3c(c(O)c1C2=O)C[C@@](O)(C(=O)CO)C[C@@H]3O[C@H]1C[C@H](N)[C@H](O)[C@H](C)O1 [doxorubicin],1.44
2,O=C(O)C1(C(=O)O)CCC1.[NH2-].[NH2-].[Pt+2] [carboplatin],2.43
3,NC(=O)Nc1cc(-c2cccc(F)c2)sc1C(=O)N[C@H]1CCCNC1 [AZD7762],2.34
4,Nc1ccn([C@@H]2O[C@H](CO)[C@@H](O)C2(F)F)c(=O)n1 [gemcitabine],2
5,CC1(C)CCC(c2ccc(Cl)cc2)=C(CN2CCN(c3ccc(C(=O)NS(=O)(=O)c4ccc(N[C@H](CCN5CCOCC5)CSc5ccccc5)c(S(=O)(=O)C(F)(F)F)c4)cc3)CC2)C1 [navitoclax],2.54
6,CN(Cc1cnc2nc(N)nc(N)c2n1)c1ccc(C(=O)N[C@@H](CCC(=O)O)C(=O)O)cc1 [methotrexate],2.12
7,C=CCn1c(=O)c2cnc(Nc3ccc(N4CCN(C)CC4)cc3)nc2n1-c1cccc(C(C)(C)O)n1 [adavosertib],2.56
8,CC(C)(C(=O)NCC(F)(F)C(F)(F)F)C(=O)N[C@@H]1C(=O)Nc2ccccc2-c2ccccc21,2.36
9,C[C@@H]1COCCN1c1cc(C2([S@](C)(=N)=O)CC2)nc(-c2cc[nH]c3nccc2-3)n1 [ceralasertib],2.29
10,CCN1CCN(Cc2ccc(Nc3ncc(F)c(-c4cc(F)c5nc(C)n(C(C)C)c5c4)n3)nc2)CC1 [abemaciclib],1.89

# From the supplement of paper PMC8882468
